Test results as given in US10294202B2, “Pyrrolidinones as herbicides” (FMC Corporation, priority 2013, dated 2019).

Key:
waterhemp = experiment: Test E preemergence herbicide test; type: in vivo, Amaranthus rudis; set-up: key: 0 = no effect, 100 = complete control
Description: (§1) Seeds of plant species selected from corn (Zea mays), soybean (Glycine max), velvetleaf (Abutilon theophrasti), lambsquarters (Chenopodium album), wild poinsettia (Euphorbia heterophylla), pigweed, palmer (palmer pigweed, Amaranthus palmeri), waterhemp (common waterhemp, Amaranthus rudis), surinam grass (Brachiaria decumbens), crabgrass, large (large crabgrass, Digitaria sanguinalis), crabgrass, Brazil (Brazilian crabgrass, Digitaria horizontalis), panicum, fall (fall panicum, Panicum dichotomiflorum), foxtail, giant (giant foxtail, Setaria faberii), foxtail, green (green foxtail, Setaria viridis), goosegrass (Eleusine indica), johnsongrass (Sorghum halepense), ragweed (common ragweed, Ambrosia elatior), barnyardgrass (Echinochloa crus-galli), sandbur (southern sandbur, Cenchrus echinatus), arrowleaf […] rhombifolia), ryegrass, Italian (Italian ryegrass, Lolium multiflorum), dayflower, VA (Virginia dayflower, Commelina virginica), field bindweed (Convolvulus arvensis), morningglory (Ipomoea coccinea), nightshade (eastern black nightshade, Solanum ptycanthum), kochia (Kochia scoparia), nutsedge, yellow (yellow nutsedge, Cyperus esculentus), cocklebur (common cocklebur, Xanthium strumarium), smartweed (ladysthumb smartweed, Polygonum Persicaria) and beggarticks (hairy beggarticks, Bidens pilosa), were planted into a silt loam soil and treated preemergence with test chemicals formulated in a non-phytotoxic solvent mixture which included a surfactant. Treated plants and controls were maintained in a greenhouse for 21 days, after which time all species were compared to controls and visually evaluated. Plant response ratings, summarized in Table E, are based on a scale of 0 to 100 where 0 is no effect and 100 is complete control. A dash (-) response means no test result.

cupgrass, woolly = experiment: Test C pre-/postemergence herbicide test; type: in vivo, Eriochloa villosa
Description: Seeds of plant species selected from blackgrass (Alopecurus myosuroides), ryegrass, Italian (Italian ryegrass, Lolium multiflorum), wheat (winter wheat, Triticum aestivum), galium (catchweed bedstraw, Galium aparine), corn (Zea mays), crabgrass, large (large crabgrass, Digitaria sanguinalis), foxtail, giant (giant foxtail, Setaria faberii), johnsongrass (Sorghum halepense), lambsquarters (Chenopodium album), morningglory (Ipomoea coccinea), nutsedge, yellow (yellow nutsedge, Cyperus esculentus), pigweed (Amaranthus retroflexus), ragweed (common ragweed, Ambrosia elatior), soybean (Glycine max), barnyardgrass (Echinochloa crus-galli), oilseed rape (Brassica napus), waterhemp (common waterhemp, Amaranthus rudis), kochia (Kochia scoparia), oat, wild (wild oat, Avena fatua), surinam grass (Brachiaria decumbens), foxtail, green (green foxtail, Setaria viridis), goosegrass (Eleusine indica), bromegrass, downy (downy bromegrass, Bromus tectorum), nightshade (eastern black nightshade, Solanum ptycanthum), cocklebur (common cocklebur, Xanthium strumarium), cupgrass, woolly (woolly cupgrass, Eriochloa villosa), bermudagrass (Cynodon dactylon), sunflower, (common oilseed sunflower, Helianthus annuus), Russian thistle (Salsola kali) and velvetleaf (Abutilon theophrasti) were planted into a blend of loam soil and sand and treated preemergence with test chemicals formulated in a non-phytotoxic solvent mixture which included a surfactant. At the same time, plants selected from these crop and weed species and also barley (winter barley, Hordeum vulgare), […]), chickweed (common chickweed, Stellaria media), deadnettle (henbit deadnettle, Lamium amplexicaule), and canarygrass (littleseed canarygrass, Phalaris minor) were planted in pots containing Redi-Earth® planting medium (Scotts Company, 14111 Scottslawn Road, Marysville, Ohio 43041) comprising spaghnum peat moss, vermiculite, wetting agent and starter nutrients and treated with postemergence applications of test chemicals formulated in the same manner. Plants ranged in height from 2 to 18 cm (1- to 4-leaf stage) for postemergence treatments. Treated plants and controls were maintained in a greenhouse for 13 to 15 days, after which time all species were compared to controls and visually evaluated. Plant response ratings, summarized in Table C, are based on a scale of 0 to 100 where 0 is no effect and 100 is complete control. A dash (-) response means no test result.

foxtail, giant = experiment: Test E preemergence herbicide test; type: in vivo, Setaria faberii; set-up: key: 0 = no effect, 100 = complete control
Description: as §1

kochia = experiment: Test E preemergence herbicide test; type: in vivo, Kochia scoparia; set-up: key: 0 = no effect, 100 = complete control
Description: as §1

soybean = experiment: Test E preemergence herbicide test; type: in vivo, Glycine max; set-up: key: 0 = no effect, 100 = complete control
Description: as §1

chickweed = experiment: Test D pre-/postemergence herbicide test; type: in vivo, Stellaria media; conditions: Postemergence, Chickweed, scale 0 to 100
Summary of the method: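 Seeds sown in silt loam were sprayed preemergence with test chemicals in a non-phytotoxic solvent mixture with surfactant. Postemergence plants grown in peat/vermiculite medium were treated at 2–18 cm (1- to 4-leaf stage). After 7 to 21 days in a controlled environment, injury was rated visually versus controls, 0 (no effect) to 100 (complete control).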

[1] = Preemergence, 62 g ai/ha, scale 0 to 100
[2] = Preemergence, 125 g ai/ha, scale 0 to 100 (0 no effect, 100 complete control)
[3] = Preemergence, 31 g ai/ha, scale 0 to 100 (0 no effect, 100 complete control)
[4] = Preemergence, 250 g ai/ha, scale 0 to 100 (0 no effect, 100 complete control)

O=C1NCC(c2ccc(Cl)c(Cl)c2)C1C(=O)Nc1ccccc1F (racemic) [Compound 14]
Plant response rating, Waterhemp (waterhemp; 16 g ai/ha): 0 | Plant response rating, Waterhemp (waterhemp; 31 g ai/ha): 0 | Plant response rating, Waterhemp (waterhemp; 62 g ai/ha): 0 | Plant response rating, Waterhemp (waterhemp; 125 g ai/ha): 0 | Plant response rating, Waterhemp (waterhemp; 250 g ai/ha): 0 | Plant response rating, Cupgrass, Woolly (cupgrass, woolly; [1]): 0 | Plant response rating, Cupgrass, Woolly (cupgrass, woolly; [2]): 0 | Cupgrass, Woolly plant response rating (cupgrass, woolly; [3]): 0 | Plant response rating, Cupgrass, Woolly (cupgrass, woolly; [4]): 80 | Plant response rating, Foxtail, Giant (foxtail, giant; 16 g ai/ha): 0 | Plant response rating, Foxtail, Giant (foxtail, giant; 31 g ai/ha): 0 | Plant response rating, Foxtail, Giant (foxtail, giant; 62 g ai/ha): 0 | Plant response rating, Foxtail, Giant (foxtail, giant; 125 g ai/ha): 10 | Plant response rating, Foxtail, Giant (foxtail, giant; 250 g ai/ha): 90 | Plant response rating, Kochia (kochia; 16 g ai/ha): 0 | Plant response rating, Kochia (kochia; 31 g ai/ha): 0 | Plant response rating, Kochia (kochia; 62 g ai/ha): 0 | Plant response rating, Kochia (kochia; 125 g ai/ha): 0 | Plant response rating, Kochia (kochia; 250 g ai/ha): 0 | Plant response rating, Soybean (soybean; 16 g ai/ha): 0 | Plant response rating, Soybean (soybean; 31 g ai/ha): 0 | Plant response rating, Soybean (soybean; 62 g ai/ha): 0 | Plant response rating, Soybean (soybean; 125 g ai/ha): 0 | Plant response rating, Soybean (soybean; 250 g ai/ha): 0

O=C1NCC(c2ccc(F)c(F)c2)C1C(=O)Nc1cccc(F)c1F (stereo not drawn) [Compound 17, N-(2,3-difluorophenyl)-4-(3,4-difluorophenyl)-2-oxo-3-pyrrolidinecarboxamide]
Plant response rating, Waterhemp (waterhemp; 16 g ai/ha): 0 | Plant response rating, Waterhemp (waterhemp; 31 g ai/ha): 0 | Plant response rating, Waterhemp (waterhemp; 62 g ai/ha): 0 | Plant response rating, Waterhemp (waterhemp; 125 g ai/ha): 0 | Plant response rating, Waterhemp (waterhemp; 250 g ai/ha): 0 | Plant response rating, Cupgrass, Woolly (cupgrass, woolly; Postemergence, 31 g ai/ha, scale 0 (no effect) to 100 (complete control)): 0 | Plant response rating, Cupgrass, Woolly (cupgrass, woolly; Postemergence, 62 g ai/ha, scale 0 to 100 (0 no effect, 100 complete control)): 0 | Plant response rating, Cupgrass, Woolly (cupgrass, woolly; Postemergence, 125 g ai/ha, scale 0 to 100 (0 no effect, 100 complete control)): 0 | Plant response rating, Cupgrass, Woolly (cupgrass, woolly; Postemergence, 250 g ai/ha, scale 0 to 100 (0 no effect, 100 complete control)): 0 | Plant response rating, Cupgrass, Woolly (cupgrass, woolly; [1]): 85 | Plant response rating, Cupgrass, Woolly (cupgrass, woolly; [2]): 90 | Cupgrass, Woolly plant response rating (cupgrass, woolly; [3]): 80 | Plant response rating, Cupgrass, Woolly (cupgrass, woolly; [4]): 95 | Plant response rating, Foxtail, Giant (foxtail, giant; 16 g ai/ha): 0 | Plant response rating, Foxtail, Giant (foxtail, giant; 31 g ai/ha): 35 | Plant response rating, Foxtail, Giant (foxtail, giant; 62 g ai/ha): 35 | Plant response rating, Foxtail, Giant (foxtail, giant; 125 g ai/ha): 95 | Plant response rating, Foxtail, Giant (foxtail, giant; 250 g ai/ha): 98 | Plant response rating, Kochia (kochia; 16 g ai/ha): 0 | Plant response rating, Kochia (kochia; 31 g ai/ha): 0 | Plant response rating, Kochia (kochia; 62 g ai/ha): 0 | Plant response rating, Kochia (kochia; 125 g ai/ha): 25 | Plant response rating, Kochia (kochia; 250 g ai/ha): 50 | Plant response rating, Soybean (soybean; 16 g ai/ha): 0 | Plant response rating, Soybean (soybean; 31 g ai/ha): 0 | Plant response rating, Soybean (soybean; 62 g ai/ha): 0 | Plant response rating, Soybean (soybean; 125 g ai/ha): 0 | Plant response rating, Soybean (soybean; 250 g ai/ha): 0 | Plant response rating (chickweed; 16 g ai/ha): 0 | Plant response rating (chickweed; 31 g ai/ha): 0 | Plant response rating (chickweed; 62 g ai/ha): 0 | Plant response rating (chickweed; 125 g ai/ha): 25 | Plant response rating (chickweed; 250 g ai/ha): 30
